The numbers were not newly measured in article PMC8244136, “Integrin αvβ6-targeted MR molecular imaging of breast cancer in a xenograft mouse model” (Cancer Imaging, 2021), which cites them from elsewhere.

The test system of one series is αvβ3. The settings on record: selectivity against other integrins. The source says:
(§1) Because of the significance of integrin αvβ6 in tumorigenesis and tumor progression, many pioneering experimental studies have focused on αvβ6-targeted ligands, including peptides and non-peptide inhibitors. More recently, a novel sub-nanomolar αvβ6-specific ligand, the nonapeptide cyclo [FRGDLAFp(NMe)K] (referred to as cFK-9) was identified, which is characterized by the RXDLXXL motif sequence.

Source text in series [1]: as §1
For a further series, the system named is αvβ5. The conditions noted are these: selectivity against other integrins.
Source text: as §1

The next series relates to integrin αvβ6. The settings on record: read-out: αvβ6 binding affinity IC50.
Source text: as §1

Another series has as its system αIIbβ3. The conditions noted are these: selectivity against other integrins.
Source text: as §1

In the next series the test system is α5β1. The conditions noted are these: selectivity against other integrins.
Source text: as §1

The term IC50 denotes the concentration that inhibits the measured activity by half. “cyclo [FRGDLAFp(NMe)K] (head to tail) [cFK-9, sub-nanomolar αvβ6-specific ligand, cyclic RGD nonapeptide with RXDLXXL motif]”: the IC50 in the series with αvβ3 was 632 nM; in the series with αvβ5 it was above 1000 nM; in the series with integrin αvβ6 it was 0.26 nM; in the series with αIIbβ3 it was above 1000 nM; with α5β1, 73 nM. Further, the “stability in human plasma” value in series [1] was “very stable”.
